The assay addresses T1, mGlyT-1b (Mus musculus, UniProt P28571).
T1 construct: host or cells: Flp-in-CHO
T1 sequence (P28571 1-651 isoform P28571-2): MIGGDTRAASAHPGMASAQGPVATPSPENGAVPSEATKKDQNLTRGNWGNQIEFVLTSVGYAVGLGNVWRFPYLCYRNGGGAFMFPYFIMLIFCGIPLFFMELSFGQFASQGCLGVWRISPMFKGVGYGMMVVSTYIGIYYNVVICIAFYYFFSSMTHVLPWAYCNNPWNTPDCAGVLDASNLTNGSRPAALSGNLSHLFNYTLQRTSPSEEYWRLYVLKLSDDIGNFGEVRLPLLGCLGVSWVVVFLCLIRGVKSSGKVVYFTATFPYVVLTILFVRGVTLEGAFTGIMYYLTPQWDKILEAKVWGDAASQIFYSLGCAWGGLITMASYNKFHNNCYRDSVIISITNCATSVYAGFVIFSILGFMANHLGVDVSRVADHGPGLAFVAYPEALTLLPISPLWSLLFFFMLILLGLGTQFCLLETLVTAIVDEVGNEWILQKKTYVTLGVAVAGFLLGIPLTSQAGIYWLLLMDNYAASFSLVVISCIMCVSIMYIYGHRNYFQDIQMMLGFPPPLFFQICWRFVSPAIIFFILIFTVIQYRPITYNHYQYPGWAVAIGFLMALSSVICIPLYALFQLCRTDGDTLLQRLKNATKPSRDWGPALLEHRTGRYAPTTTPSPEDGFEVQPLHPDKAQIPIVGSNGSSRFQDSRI
The experiment in a line: Glycine Uptake Inhibition Assay (mGlyT-1b). The format is cell-based.

pIC50: −log10 of the molar value. Like-named read-outs stand apart in the source and are kept apart here.

As a reminder, the pIC50 is the negative decadic logarithm of the IC50, by convention in mol/L. Consider `O=C(NC1CCCC1NC1CCCC1)c1ccc(C(F)(F)F)cc1C1CC1` (single isomer, unassigned; (+)) [Example 109, (+)-cis-N-2-Cyclopentylamino-cyclopentyl)-2-cyclopropyl-4-trifluoromethyl-benzamide], for which the pIC50 (read-out: IC50 data) is 7.60.

Compound `O=C(N[C@H]1CCC[C@H]1N1CCCC1)c1ccc(C(F)(F)F)cc1C(F)(F)F` (single isomer, unassigned) [Example 78, (−)-N-(2-Pyrrolidin-1-yl-cyclopentyl)-2,4-bis-trifluoromethyl-benzamide] had a pIC50 (IC50 data) of 7.12. Same read-out and setting: the result for `COc1cc(C(F)(F)F)cc(Br)c1C(=O)NC1CCCC1N1CCCC1` (single isomer, unassigned; (-)) [Example 114, (−)-2-Bromo-6-methoxy-N-cis-(2-pyrrolidin-1-yl-cyclopentyl)-4-trifluoromethyl-benzamide] reads 7.18.

Regarding `Cc1cc(C(F)(F)F)cc(C(F)(F)F)c1C(=O)N[C@H]1CCC[C@H]1N1CCCC1` (relative stereo) [Example 103, cis-2-Methyl-N-(2-pyrrolidin-1-yl-cyclopentyl)-4,6-bis-trifluoromethyl-benzamide], the pIC50 (IC50 data) was 7.60. Still for that read-out and setting: the result for `CCc1cccc(C2CC2)c1C(=O)N[C@H]1CCC[C@H]1N1CCCC1` (racemic) [Example 98, cis-2-Cyclopropyl-6-ethyl-N-(2-pyrrolidin-1-yl-cyclopentyl)-benzamide] reads 7.10; that for `CCc1cccc(C2CC2)c1C(=O)N[C@@H]1CCC[C@@H]1N1CCCC1` (single isomer, unassigned) [Example 121, (+)-cis-2-Cyclopropyl-6-ethyl-N-(2-pyrrolidin-1-yl-cyclopentyl)-benzamide], 7.44; that for `O=C(NC1CCCC1N1CCCC1)c1c(C2CC2)cc(C(F)(F)F)cc1C(F)(F)F` (single isomer, unassigned; (+)) [Example 139, (+)-2-Cyclopropyl-N-((1R,2S or 1S,2R)-2-pyrrolidin-1-yl-cyclopentyl)-4,6-bis-trifluoromethyl-benzamide], 7.49.

Take `O=C(N[C@H]1CCC[C@H]1N1CCCC1)c1c(F)cc(C(F)(F)F)cc1C(F)(F)F` (relative stereo) [Example 105, cis-2-Fluoro-N-(2-pyrrolidin-1-yl-cyclopentyl)-4,6-bis-trifluoromethyl-benzamide]: the pIC50 (IC50 data) was 7.12. Regarding `O=C(NC1CCCC1NC1CCCC1)c1ccc(C(F)(F)F)cc1C1CC1` (single isomer, unassigned; (-)) [Example 110, (−)-cis-N-2-Cyclopentylamino-cyclopentyl)-2-cyclopropyl-4-trifluoromethyl-benzamide], for the setting “read-out: IC50 data”, the negative-log IC50 (pIC50) was 7.27. `CSc1cc(C(F)(F)F)cc(C(F)(F)F)c1C(=O)N[C@H]1CCC[C@H]1NC1CCCC1` (racemic) [Example 134, N-((cis)-2-Cyclopentylamino-cyclopentyl)-2-methylsulfanyl-4,6-bis-trifluoromethyl-benzamide]: where the note is “[3H]-glycine uptake, Flp-in-CHO cells transfected with mGlyT-1b cDNA, 20 min preincubation at 22° C., read-out: IC50 data”, the pIC50 is 7.02. `CCc1cc(C(F)(F)F)cc(C(F)(F)F)c1C(=O)N[C@H]1CCC[C@H]1N1CCCC1` (single isomer, unassigned) [Example 141, (+)-2-Ethyl-N-(2-pyrrolidin-1-yl-cyclopentyl)-4,6-bis-trifluoromethyl-benzamide] gave a pIC50 (IC50 data) of 7.36.

In the case of `COc1cc(C(F)(F)F)cc(SC)c1C(=O)N[C@@H]1CCC[C@@H]1NC1CCC1` (single isomer, unassigned) [Example 62, (−)-cis-N-(-2-Cyclobutylamino-cyclopentyl)-2-methoxy-6-methylsulfanyl-4-trifluoromethyl-benzamide], the pIC50 (read-out: IC50 data) is 7.50. In the case of `CSc1cc(C(F)(F)F)ccc1C(=O)N[C@@H]1CCC[C@@H]1N1CCCC1` (single isomer, unassigned) [Example 84, (+)-2-Methylsulfanyl-N-(2-pyrrolidin-1-yl-cyclopentyl)-4-trifluoromethyl-benzamide], the pIC50 (IC50 data) was 7.05.

Regarding `COc1cc(C(F)(F)F)cc(SC)c1C(=O)N[C@@H]1CCC[C@@H]1N1CCCC1` (single isomer, unassigned) [Example 58, (−)-2-Methoxy-6-methylsulfanyl-N-(2-pyrrolidin-1-yl-cyclopentyl)-4-trifluoromethyl-benzamide], the pIC50 (IC50 data) was 7.56. Still for that read-out and setting: the result for `CSc1cc(C(F)(F)F)cc(C(F)(F)F)c1C(=O)N[C@@H]1CCC[C@@H]1N1CCCC1` (single isomer, unassigned) [Example 119, (−)-cis-2-Methylsulfanyl-N-(2-pyrrolidin-1-yl-cyclopentyl)-4,6-bis-trifluoromethyl-benzamide] reads 7.18. For `O=C(N[C@H]1CCC[C@H]1NC1CCCC1)c1ccc(C(F)(F)F)cc1C1CC1` (racemic) [Example 102, N-((1SR,2RS)-2-Cyclopentylamino-cyclopentyl)-2-cyclopropyl-4-trifluoromethyl-benzamide], the pIC50 (read-out: IC50 data) was 7.45. Take `O=C(NC1CCCC1N1CCCC1)c1c(C2CC2)cc(C(F)(F)F)cc1C(F)(F)F` (single isomer, unassigned; (-)) [Example 138, (−)-2-Cyclopropyl-N-((1R,2, or 1S,2R)-2-pyrrolidin-1-yl-cyclopentyl)-4,6-bis-trifluoromethyl-benzamide]: the pIC50 (IC50 data) is 7.17. Same read-out and setting: the result for `COc1cc(C(F)(F)F)cc(OC(F)F)c1C(=O)N[C@H]1CCC[C@H]1N1CCCC1` (relative stereo) [Example 133, 2-Difluoromethoxy-6-methoxy-N-((cis)-2-pyrrolidin-1-yl-cyclopentyl)-4-trifluoromethyl-benzamide] reads 7.04; that for `O=C(NC1CCCC1N1CCCC1)c1ccc(C(F)(F)F)cc1C1CC1` (single isomer, unassigned; (+)) [Example 97, (+)-2-Cyclopropyl-N-cis-(-2-pyrrolidin-1-yl-cyclopentyl)-4-trifluoromethyl-benzamide], 7.08; that for `O=C(N[C@H]1CCC[C@H]1N1CCCC1)c1c(Cl)cc(C(F)(F)F)cc1Cl` (relative stereo) [Example 108, cis-2,6-Dichloro-N-(2-pyrrolidin-1-yl-cyclopentyl)-4-trifluoromethyl-benzamide], 7.05.

Compound `O=C(NC1CCCC1N1CCCC1)c1c(Cl)cc(C(F)(F)F)cc1Cl` (single isomer, unassigned; (-)) [Example 129, (−)-2,6-Dichloro-N-cis-(2-pyrrolidin-1-yl-cyclopentyl)-4-trifluoromethyl-benzamide] gave a pIC50 (IC50 data) of 7.19. Compound `CCc1cc(C(F)(F)F)ccc1C(=O)N[C@H]1CCC[C@H]1N1CCCC1` (relative stereo) [Example 80, cis-2-Ethyl-N-(2-pyrrolidin-1-yl-cyclopentyl)-4-trifluoromethyl-benzamide] showed a negative logarithm of the IC50 (pIC50) (IC50 data) of 7.05. `COc1cc(C(F)(F)F)cc(Br)c1C(=O)N[C@H]1CCC[C@H]1N1CCCC1` (racemic) [Example 101, 2-Bromo-6-methoxy-N-cis-(2-pyrrolidin-1-yl-cyclopentyl)-4-trifluoromethyl-benzamide] showed a pIC50 (IC50 data) of 7.02. As for `COc1cc(C(F)(F)F)cc(SC)c1C(=O)N[C@@H]1CCC[C@@H]1NC1CCCC1` (racemic) [Example 65, N-((1RS,2SR)-2-Cyclopentylamino-cyclopentyl)-2-methoxy-6-methylsulfanyl-4-trifluoromethyl-benzamide], the pIC50 (read-out: IC50 data) is 7.25.
